In patent publication US11066404B2, “Dihydropyrido[2,3-d]pyrimidinone compounds as CDK2 inhibitors” (Incyte Corporation, priority 2018, dated 2021):
pIC50: −log10 of the molar value.

biological target: CDK2/Cyclin E1 (Homo sapiens (Human), UniProt P24941); assay: CDK2/Cyclin E1 HTRF Enzyme Activity Assay; format: biochemical; conditions: 1 mM ATP
Description: Example A. CDK2/Cyclin E1 HTRF Enzyme Activity Assay
CDK2/Cyclin E1 enzyme activity assays utilize full-length human CDK2 co-expressed as N-terminal GST-tagged protein with FLAG-Cyclin E1 in a baculovirus expression system (Carna Product Number 04-165). Assays are conducted in white 384-well polystyrene plates in a final reaction volume of 8 μL. CDK2/Cyclin E1 (0.25 nM) is incubated with compounds (40 nL serially diluted in DMSO) in the presence of ATP (50 μM or 1 mM) and 50 nM ULight™-labeled eIF4E-binding protein 1 (THR37/46) peptide (PerkinElmer) in assay buffer (containing 50 mM HEPES pH 7.5, 1 mM EGTA, 10 mM MgCl2, 2 mM DTT, 0.05 mg/ml BSA, and 0.01% Tween 20) for 60 minutes at room temperature. The reactions are stopped by the addition of EDTA and Europium-labeled anti-phospho-4E-BP 1 antibody (PerkinElmer), for a final concentration of 15 mM and 1.5 nM, respectively. HTRF signals are read after 1 hour at room temperature on a PHERAstar FS plate reader (BMG Labtech). Data is analyzed with IDBS XLFit and GraphPad Prism 5.0 software using a three or four parameter dose response curve to determine IC50 for each compound.

Row | Compound | pIC50
1 | Cn1nccc1CN1C(=O)C(C)(C)Cc2cnc(NC3CCN(S(C)(=O)=O)CC3)nc21 [Example 5, 6,6-dimethyl-8-((1-methyl-1H-pyrazol-5-yl)methyl)-2-((1-(methylsulfonyl)piperidin-4-yl)amino)-5,8-dihydropyrido[2,3-d]pyrimidin-7(6H)-one] | 6.30 to 7.00
2 | CC1(C)Cc2cnc(NC3CCN(S(C)(=O)=O)CC3)nc2N(C2CCOC2)C1=O (racemic) [Example 6, 6,6-dimethyl-2-((1-(methylsulfonyl)piperidin-4-yl)amino)-8-(tetrahydrofuran-3-yl)-5,8-dihydropyrido[2,3-d]pyrimidin-7(6H)-one] | 6.30 to 7.00
3 | CC1(C)Cc2cnc(NC3CCN(S(C)(=O)=O)CC3)nc2N(c2ccccc2)C1=O [Example 3, 6,6-dimethyl-2-((1-(methylsulfonyl)piperidin-4-yl)amino)-8-phenyl-5,8-dihydropyrido[2,3-d]pyrimidin-7(6H)-one] | 6.30 to 7.00

Next, values leading:

Row | pIC50 | Compound
4 | ≥ 8.00 | CC1(C)Cc2cnc(NC3CCN(S(C)(=O)=O)CC3)nc2N(C2CCCC2)C1=O [Example 2, 8-cyclopentyl-6,6-dimethyl-2-((1-(methylsulfonyl)piperidin-4-yl)amino)-5,8-dihydropyrido[2,3-d]pyrimidin-7(6H)-one]
5 | 7.00 to 8.00 | CCC(C(F)F)N1C(=O)C(C)(C)Cc2cnc(NC3CCN(S(C)(=O)=O)CC3)nc21 (racemic) [Example 4, 8-(1,1-difluorobutan-2-yl)-6,6-dimethyl-2-((1-(methylsulfonyl)piperidin-4-yl)amino)-5,8-dihydropyrido[2,3-d]pyrimidin-7(6H)-one]
6 | ≥ 8.00 | CC1(C)Cc2cnc(Nc3ccc(S(N)(=O)=O)cc3)nc2N(C2CCCC2)C1=O [Example 1, 4-((8-cyclopentyl-6,6-dimethyl-7-oxo-5,6,7,8-tetrahydropyrido[2,3-d]pyrimidin-2-yl)amino)benzenesulfonamide]
